Results: patent US10253002B2, “Compounds and methods of treating infections” (Neoculi Pty Ltd., priority 2013, dated 2019)
In brackets after ≈: the same amount, converted by molar mass. Several values for one entry are separate records, joined by “and”; a condition that tells them apart may be missing. Equal entries are not always repeated.

Tested on: MRSA
Assay: Broth microdilution MIC, Example 7 (NCL812 and analogues)
Format: cell-based, Staphylococcus aureus
Details: MIC testing, two MRSA strains
How it was run: (§1)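 Turbidity read visually and then at 600 nm defined the MIC (μg/ml), comparing drug-containing wells with a growth-control well lacking antimicrobial. Testing followed the CLSI broth microdilution method, in duplicate, using two strains per organism group.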

| SMILES | activity against MRSA among analogues |
| --- | --- |
| Cc1ccc(/C=N/Nc2cc(N/N=C/c3ccc(C)cc3)nc(N)n2)cc1 [NCL195, 4,6-bis(2-((E)-4-methylbenzylidene)hydrazinyl)pyrimidin-2-amine] | greatest activity |
| Nc1nc(N/N=C/c2cccc(O)c2)cc(N/N=C/c2cccc(O)c2)n1 [NCL197] | greatest activity |
| Nc1nc(N/N=C/c2ccccc2O)cc(N/N=C/c2ccccc2O)n1 [NCL202] | greatest activity |

Same assay, conditions: MRSA 1, 24 hours

| SMILES | MIC (μg/ml) at 24 hours, MRSA 1 |
| --- | --- |
| Cc1ccc(/C=N/Nc2cc(N/N=C/c3ccc(C)cc3)nc(N)n2)cc1 [NCL195, 4,6-bis(2-((E)-4-methylbenzylidene)hydrazinyl)pyrimidin-2-amine] | 2 µg/mL (≈ 5.56 µM) |
| Nc1nc(N/N=C/c2cccc(O)c2)cc(N/N=C/c2cccc(O)c2)n1 [NCL197] | 8 µg/mL (≈ 22 µM) |
| Nc1nc(N/N=C/c2ccccc2O)cc(N/N=C/c2ccccc2O)n1 [NCL202] | 8 µg/mL (≈ 22 µM) |

Same assay, conditions: MRSA 2, 24 hours

| SMILES | MIC (μg/ml) at 24 hours, MRSA 2 |
| --- | --- |
| Cc1ccc(/C=N/Nc2cc(N/N=C/c3ccc(C)cc3)nc(N)n2)cc1 [NCL195, 4,6-bis(2-((E)-4-methylbenzylidene)hydrazinyl)pyrimidin-2-amine] | 2 µg/mL (≈ 5.56 µM) |
| Nc1nc(N/N=C/c2cccc(O)c2)cc(N/N=C/c2cccc(O)c2)n1 [NCL197] | 8 µg/mL (≈ 22 µM) |
| Nc1nc(N/N=C/c2ccccc2O)cc(N/N=C/c2ccccc2O)n1 [NCL202] | 8 µg/mL (≈ 22 µM) |

Same assay, conditions: Staphylococcus aureus, MRSA, 24 h, read-out: MIC (μg/ml) at 24 hours MRSA 1, MRSA 1, 24 hours

| SMILES | MIC |
| --- | --- |
| Cc1ccc(/C=N/Nc2cc(N/N=C/c3ccc(C)cc3)nc(N)n2)cc1 [NCL195, 4,6-bis(2-((E)-4-methylbenzylidene)hydrazinyl)pyrimidin-2-amine] | 2 µg/mL (≈ 5.56 µM) |

Same assay, conditions: Staphylococcus aureus, MRSA, 24 h, read-out: MIC (μg/ml) at 24 hours MRSA 2, MRSA 2, 24 hours

| SMILES | MIC |
| --- | --- |
| Cc1ccc(/C=N/Nc2cc(N/N=C/c3ccc(C)cc3)nc(N)n2)cc1 [NCL195, 4,6-bis(2-((E)-4-methylbenzylidene)hydrazinyl)pyrimidin-2-amine] | 2 µg/mL (≈ 5.56 µM) |

Same assay, conditions: Staphylococcus aureus, MRSA, bioassay ranking, MRSA; read-out: MRSA

| SMILES | MIC |
| --- | --- |
| Cc1ccc(/C=N/Nc2cc(N/N=C/c3ccc(C)cc3)nc(N)n2)cc1 [NCL195, 4,6-bis(2-((E)-4-methylbenzylidene)hydrazinyl)pyrimidin-2-amine] | 2 µg/mL (≈ 5.56 µM) |

Same assay, conditions: bioassay ranking, MRSA

| SMILES | MRSA |
| --- | --- |
| Nc1nc(N/N=C/c2cccc(O)c2)cc(N/N=C/c2cccc(O)c2)n1 [NCL197] | 8 µg/mL |
| Nc1nc(N/N=C/c2ccccc2O)cc(N/N=C/c2ccccc2O)n1 [NCL202] | 10 µg/mL |

Tested on: VRE
Assay: as above
Format: cell-based, Enterococcus spp.
Details: Enterococcus, VRE, 24 h, read-out: MIC (μg/ml) at 24 hours VRE 1, VRE 1, 24 hours
How it was run: as §1

| SMILES | MIC |
| --- | --- |
| Cc1ccc(/C=N/Nc2cc(N/N=C/c3ccc(C)cc3)nc(N)n2)cc1 [NCL195, 4,6-bis(2-((E)-4-methylbenzylidene)hydrazinyl)pyrimidin-2-amine] | 4 µg/mL (≈ 11.1 µM) |

Same assay, conditions: Enterococcus, VRE, 24 h, read-out: MIC (μg/ml) at 24 hours VRE 2, VRE 2, 24 hours

| SMILES | MIC |
| --- | --- |
| Cc1ccc(/C=N/Nc2cc(N/N=C/c3ccc(C)cc3)nc(N)n2)cc1 [NCL195, 4,6-bis(2-((E)-4-methylbenzylidene)hydrazinyl)pyrimidin-2-amine] | 2 µg/mL (≈ 5.56 µM) |

Same assay, conditions: Enterococcus, VRE, bioassay ranking, VRE; read-out: VRE

| SMILES | MIC |
| --- | --- |
| Cc1ccc(/C=N/Nc2cc(N/N=C/c3ccc(C)cc3)nc(N)n2)cc1 [NCL195, 4,6-bis(2-((E)-4-methylbenzylidene)hydrazinyl)pyrimidin-2-amine] | 3.5 µg/mL (≈ 9.74 µM) |

Same assay, conditions: MIC testing, two VRE strains

| SMILES | activity against VRE among analogues |
| --- | --- |
| Cc1ccc(/C=N/Nc2cc(N/N=C/c3ccc(C)cc3)nc(N)n2)cc1 [NCL195, 4,6-bis(2-((E)-4-methylbenzylidene)hydrazinyl)pyrimidin-2-amine] | greatest activity |
| Nc1nc(N/N=C/c2cccc(O)c2)cc(N/N=C/c2cccc(O)c2)n1 [NCL197] | greatest activity |
| Nc1nc(N/N=C/c2ccccc2O)cc(N/N=C/c2ccccc2O)n1 [NCL202] | greatest activity |

Same assay, conditions: VRE 1, 24 hours

| SMILES | MIC (μg/ml) at 24 hours, VRE 1 |
| --- | --- |
| Nc1nc(N/N=C/c2cccc(O)c2)cc(N/N=C/c2cccc(O)c2)n1 [NCL197] | 8 µg/mL and 4 µg/mL |
| Nc1nc(N/N=C/c2ccccc2O)cc(N/N=C/c2ccccc2O)n1 [NCL202] | 8 µg/mL (≈ 22 µM) |

Same assay, conditions: VRE 2, 24 hours

| SMILES | MIC (μg/ml) at 24 hours, VRE 2 |
| --- | --- |
| Cc1ccc(/C=N/Nc2cc(N/N=C/c3ccc(C)cc3)nc(N)n2)cc1 [NCL195, 4,6-bis(2-((E)-4-methylbenzylidene)hydrazinyl)pyrimidin-2-amine] | 4 µg/mL (≈ 11.1 µM) |
| Nc1nc(N/N=C/c2cccc(O)c2)cc(N/N=C/c2cccc(O)c2)n1 [NCL197] | 8 µg/mL (≈ 22 µM) |
| Nc1nc(N/N=C/c2ccccc2O)cc(N/N=C/c2ccccc2O)n1 [NCL202] | 8 µg/mL (≈ 22 µM) |

Same assay, conditions: bioassay ranking, VRE

| SMILES | VRE |
| --- | --- |
| Nc1nc(N/N=C/c2cccc(O)c2)cc(N/N=C/c2cccc(O)c2)n1 [NCL197] | 7 µg/mL |
| Nc1nc(N/N=C/c2ccccc2O)cc(N/N=C/c2ccccc2O)n1 [NCL202] | 8 µg/mL |

Tested on: Escherichia coli
Assay: as above
Format: cell-based
Details: E. coli, 24 hours

| SMILES | MIC (μg/ml) at 24 hours, E. coli |
| --- | --- |
| Nc1nc(N/N=C/c2cccc(O)c2)cc(N/N=C/c2cccc(O)c2)n1 [NCL197] | >128 µg/mL |
| Nc1nc(N/N=C/c2ccccc2O)cc(N/N=C/c2ccccc2O)n1 [NCL202] | >128 µg/mL |

Same assay, conditions: Escherichia coli, read-out: MIC (μg/ml) at 24 hours E. coli; E. coli, 24 hours

| SMILES | MIC |
| --- | --- |
| Cc1ccc(/C=N/Nc2cc(N/N=C/c3ccc(C)cc3)nc(N)n2)cc1 [NCL195, 4,6-bis(2-((E)-4-methylbenzylidene)hydrazinyl)pyrimidin-2-amine] | > 128 µg/mL |

Tested on: Pseudomonas aeruginosa
Assay: as above
Format: cell-based
Details: P. aeruginosa, 24 hours

| SMILES | MIC (μg/ml) at 24 hours, P. aeruginosa |
| --- | --- |
| Nc1nc(N/N=C/c2cccc(O)c2)cc(N/N=C/c2cccc(O)c2)n1 [NCL197] | >128 µg/mL |
| Nc1nc(N/N=C/c2ccccc2O)cc(N/N=C/c2ccccc2O)n1 [NCL202] | >128 µg/mL |

Same assay, conditions: Pseudomonas aeruginosa, 24 h, read-out: MIC (μg/ml) at 24 hours P. aeruginosa, P. aeruginosa, 24 hours

| SMILES | MIC |
| --- | --- |
| Cc1ccc(/C=N/Nc2cc(N/N=C/c3ccc(C)cc3)nc(N)n2)cc1 [NCL195, 4,6-bis(2-((E)-4-methylbenzylidene)hydrazinyl)pyrimidin-2-amine] | > 128 µg/mL |

Tested on: not listed separately
Assay: Bioassay ranking of the analogues tested
Details: M + R (MRSA and VRE combined)

| SMILES | M + R |
| --- | --- |
| Cc1ccc(/C=N/Nc2cc(N/N=C/c3ccc(C)cc3)nc(N)n2)cc1 [NCL195, 4,6-bis(2-((E)-4-methylbenzylidene)hydrazinyl)pyrimidin-2-amine] | 2.75 µg/mL |
| Nc1nc(N/N=C/c2cccc(O)c2)cc(N/N=C/c2cccc(O)c2)n1 [NCL197] | 7.5 µg/mL |
| Nc1nc(N/N=C/c2ccccc2O)cc(N/N=C/c2ccccc2O)n1 [NCL202] | 9 µg/mL |
